Patent US20090054412A1, “Treatment of Sleep Disorders” (priority 2007, published 2009)
Marks after values point to notes of the source that are not given here.

Columns and labels:
[1] = Example 3: randomized double-blind placebo-controlled crossover study in primary insomnia (PSG, patient reports, DSST, safety); format: in vivo, human
Description: A randomized, multicenter, double-blind, placebo-controlled crossover study was conducted to assess the efficacy of the 1.5 mg and 2.5 mg doses of the compound of formula (II) in the treatment of primary insomnia in adult patients. Specifically, one of the objectives of the study was to assess the efficacy of 1.5 mg and 2.5 mg doses on polysomnogram (PSG) and patient-reported measures of sleep. Also, the study was aimed at assessing the safety of 1.5 mg and 2.5 mg doses.
The study in this Example was performed for two consecutive nights with a 5-12 day washout between each period. The dosing was conducted 30 minutes before lights were turned out for the night via oral administration of a hard gelatine capsule containing the compound of formula (II) in powder form. PSG was taken for 8 hours from “lights out” on nights 1 and 2 of each treatment period. Centralized scoring of PSG was used. Testing for residual effects using the Digit Symbol Substitution Test (DSST) was performed at least 30 minutes after wake time (9 hours post dose).
[…] These subjects' typical bed time was between 9 pm and 1 am with at least 7 hours in bed. These subjects reported sleep latency of at least 45 minutes and total sleep time (TST) of not more than 6.5 hours in a sleep diary for at least 3 of 7 nights.
Mean wake time after sleep onset (WASO) of the patients was at least 40 minutes and mean TST was 240-420 minutes.

[2] = Example 1: placebo controlled cross-over study, road noise model, healthy volunteers; format: in vivo, human
Description: A placebo controlled, randomized, double-blind, cross-over study of the effects of the compound of formula (II) was conducted using a road noise model using 12 healthy volunteers. Specifically, the volunteers were subjected to road traffic noise to imitate the effects of insomnia, and the medication was orally administered 5 minutes before the 11 pm bed time in 1.0 mg, 1.5 mg, 2 mg and 2.5 mg doses in the form of a hard gelatine capsule containing the powdered compound of formula (II). Measurements were then taken at 8, 10 and 12 hours after dosing.

[3] = 1.5, 2.0 & 2.5 mg oral, vs placebo
[4] = all 4 doses (1.0, 1.5, 2 and 2.5 mg oral)
[5] = objective residual effects, 8, 10 and 12 hours after dosing

Which results are given for `CN(C)Cc1nc(-c2ncn3c2CN(C)C(=O)c2c(Cl)cccc2-3)no1` [compound of formula (II), 7-chloro-3-(5-dimethylaminomethyl-[1,2,4]oxadiazol-3-yl)-5-methyl-4,5-dihydro-imidazo[1,5-a][1,4]benzodiazepine-6-one]?
increase of TST compared to placebo ([1]; 1.5 mg): 33.1 min; reduction of LPS compared to placebo ([1]; 1.5 mg): 17.0 min; reduction of WASO compared to placebo ([1]; 1.5 mg): 16.7 min; reduction of total wake time in hours 5-8 ([1]; 1.5 mg): 10.8 min; Number of Patients with Any Event ([1]; 1.5 mg (n = 71)): 13; Number of Patients with Headache ([1]; 1.5 mg (n = 71)): 3; Number of Patients with Somnolence ([1]; 1.5 mg (n = 71)): 2; Patients with Any Event, percent ([1]; 1.5 mg (n = 71)): 18.3%; Patients with Headache, percent ([1]; 1.5 mg (n = 71)): 4.2%; Patients with Somnolence, percent ([1]; 1.5 mg (n = 71)): 2.8%; safety and tolerability ([1]; 1.5 mg and 2.5 mg): safe and well-tolerated; WASO in the second half of the night (5-8 hours after lights out) ([1]; 1.5 mg and 2.5 mg, compared to placebo, p<0.0001): reduced WASO; patient-reported residual sedation effects ([1]; 1.5 mg or 2.5 mg compared with placebo): no patient-reported residual sedation effects; Adjusted mean LPS (min), p value ([1]; 1.5 mg vs. placebo): p < 0.0001; Adjusted mean TST (min), p value ([1]; 1.5 mg vs. placebo): p < 0.0001; Adjusted mean WASO (min), p value ([1]; 1.5 mg vs. placebo): p < 0.0001; Adjusted mean total wake time, 2nd half (min), p value ([1]; 1.5 mg vs. placebo): p = 0.0008; increase of TST compared to placebo ([1]; 2.5 mg): 45.0 min; reduction of LPS compared to placebo ([1]; 2.5 mg): 20.7 min; reduction of WASO compared to placebo ([1]; 2.5 mg): 25.7 min; reduction of total wake time in hours 5-8 ([1]; 2.5 mg): 16.2 min; Number of Patients with Any Event ([1]; 2.5 mg (n = 71)): 18; Number of Patients with Headache ([1]; 2.5 mg (n = 71)): 6; Number of Patients with Somnolence ([1]; 2.5 mg (n = 71)): 4; Patients with Any Event, percent ([1]; 2.5 mg (n = 71)): 25.4%; Patients with Headache, percent ([1]; 2.5 mg (n = 71)): 8.5%; Patients with Somnolence, percent ([1]; 2.5 mg (n = 71)): 5.6%; Adjusted mean LPS (min), p value ([1]; 2.5 mg vs. placebo): p < 0.0001; Adjusted mean TST (min), p value ([1]; 2.5 mg vs. placebo): p < 0.0001; Adjusted mean WASO (min), p value ([1]; 2.5 mg vs. placebo): p < 0.0001; Adjusted mean total wake time, 2nd half (min), p value ([1]; 2.5 mg vs. placebo): p < 0.0001; total time awake during each hour after dosing ([1]; 2.5 mg, hour 7 p 0.0577): statistically significant reduction each hour, except hour 7; REM sleep ([1]; 1.5 and 2.5 mg): only a small effect on REM sleep; patient-reported sleep quality ([1]; 1.5 and 2.5 mg): marked improvement in sleep quality; sleep architecture ([1]; 1.5 and 2.5 mg): equivalent to the natural sleep architecture; slow wave sleep ([1]; 1.5 and 2.5 mg): no impairment of slow wave sleep; Digit Symbol Substitution Test (DSST) scores ([1]; 9 hours after dose, compared with placebo): only slightly lower; Subjective assessment (LARS): Coordination ([2]; 2.5 mg): No impairment; Subjective assessment (LARS): Mood ([2]; 2.5 mg): No impairment; Subjective assessment (LARS): Sedation ([2]; 2.5 mg): No impairment; WASO 2nd half night (hrs 5-8) [2, 3]: Significantly reduced; WASO full night (hrs 0-8) [2, 3]: Significantly reduced; Sleep Efficiency Index ([2]; 2.0 & 2.5 mg oral, vs placebo): Significantly improved; Total Sleep Time ([2]; 2.0 & 2.5 mg oral, vs placebo): Significantly improved; Performance on cognitive or psychomotor tests ([2]; 8 to 12 hours after dose, data corrected for multiple comparisons): no impairment of performance; Leeds Sleep Evaluation Questionnaire: Quality of sleep ([2]; all 4 doses): Significantly improved at all; Slow Wave Sleep (% and duration) [2, 4]: Significantly increased; Stage IV Sleep (% and duration) [2, 4]: Significantly increased; Sternberg Memory Task (STM) ([2]; at 8 or 12 h): No effect; Continuous Tracking Task - reaction time ([2]; at 10 or 12 h): No effect; Continuous Tracking Task - deviation ([2]; at 8 h): No effect; Leeds Sleep Evaluation Questionnaire: Early morning behaviour (clumsiness & tiredness) ([2]; human, in vivo): No effect; Leeds Sleep Evaluation Questionnaire: Ease of awakening ([2]; human, in vivo): No effect; Choice Reaction Time - Motor Component ([2]; objective residual effects): No effect; Critical Flicker Fusion Test ([2]; objective residual effects): No effect; Word Recall - delayed (WRd) ([2]; objective residual effects): No effect; Rapid Visual Information Processing [2, 5]: No effect; Sustained Attention to Response (SART) [2, 5]: No effect; Leeds Sleep Evaluation Questionnaire: Getting to sleep ([2]; road traffic noise model considered nondiscriminant for sleep onset measures): (No effect)*
